Measurements published in ChEMBL document CHEMBL5537178, “Discovery of TP0628103: A Highly Potent and Selective MMP-7 Inhibitor with Reduced OATP-Mediated Clearance Designed by Shifting Isoelectric Points” (J Med Chem, 2024).
Starred links: 1 amine or outer side, 2 acyl side, 3 side chain; linkers in the order of their positions; H or OH if unused. Non-standard residues stand in square brackets, D forms with d. Residues, ends and D or L forms follow the SMILES beside them. *: point of attachment. Benzenesulfonyl(4-Cl,3-CF3) = O=S(=O)(c1ccc(Cl)c(C(F)(F)F)c1)*; γGlu = O=C(O)[C@H](CCC(=O)[*:2])N[*:1]; 4Pal = N[C@@H](Cc1ccncc1)C(=O)O; Tle = CC(C)(C)[C@H](N)C(=O)O; β3hP = O=C(O)C[C@@H]1CCCN1

What was measured:
[1] = Lipophilicity, logD of compound at pH 7.4; assay type: physicochemical; settings: buffer
[2] = Chemical stability of the compound in pH 4 aqueous solution assessed as degradation by measuring residual rate incubated for 24 hrs at 65 degC by HPLC analysis; assay type: physicochemical; settings: read-out: Activity
[3] = Chemical stability of the compound in pH 7.4 aqueous solution assessed as degradation by measuring residual rate incubated for 24 hrs at 65 degC by HPLC analysis; assay type: physicochemical; settings: read-out: Activity
[4] = Volume of distribution at steady state in CL57BL/6J mouse at 0.25 mg/kg, iv measured upto 24 hrs by LCMS/MS analysis; assay type: ADME, organism-based; settings: in vivo, read-out: Vdss
[5] = Total clearance in CL57BL/6J mouse at 0.25 mg/kg, iv measured upto 24 hrs by LCMS/MS analysis; assay type: ADME, organism-based; settings: in vivo
[6] = Urinary excretion rate in rat at 1 mg/kg, iv; assay type: ADME, organism-based; settings: urine, read-out: Activity
[7] = Total clearance in cynomolgus monkey at 0.25 mg/kg, iv; assay type: ADME, organism-based, Macaca fascicularis; settings: in vivo
[8] = Volume of distribution at steady state in cynomolgus monkey at 0.25 mg/kg, iv pretreated with rifampicin 20 mg/kg, po 1 hr before; assay type: ADME, organism-based, Macaca fascicularis; settings: in vivo, read-out: Vdss
[9] = Volume of distribution at steady state in cynomolgus monkey at 0.25 mg/kg, iv; assay type: ADME, organism-based, Macaca fascicularis; settings: in vivo, read-out: Vdss
[10] = Total clearance in cynomolgus monkey at 0.25 mg/kg, iv pretreated with rifampicin 20 mg/kg, po 1 hr before; assay type: ADME, organism-based, Macaca fascicularis; settings: in vivo
[11] = Stability of the compound in rat liver S9 fraction; assay type: ADME, subcellular

remaining at 24 h [2] [%] | remaining at 24 h [3] [%] | also measured | Compound
– | – | logD [1]: -1.9 | CC(C)c1nc(N(C)S(C)(=O)=O)nc(-c2ccc(F)cc2)c1/C=C/[C@@H](O)C[C@@H](O)CC(=O)O [ROSUVASTATIN]
97 | 96.2 | – | CC(C)(C)[C@H](NC(=O)[C@H](Cc1ccncc1)NC(=O)CNC(=O)CC[C@H](NS(=O)(=O)c1ccc(Cl)c(C(F)(F)F)c1)C(=O)O)C(=O)Nc1ccc(C(=O)N2CCC(C(=O)N[C@H](CCCCN)C(=O)N3C[C@@H](N)C[C@H]3C(N)=O)CC2)cc1
– | – | Vd [4]: 2.48 L/kg; clearance [5]: 200 mL/min/kg | CC(C)(C)[C@H](NC(=O)[C@H](Cc1ccncc1)NC(=O)CNC(=O)CC[C@H](NS(=O)(=O)c1ccc(Cl)c(C(F)(F)F)c1)C(=O)O)C(=O)Nc1ccc(C(=O)O)cc1
88.6 | 58.7 | Vd [4]: 0.185 L/kg; clearance [5]: 41.3 mL/min/kg | CC(C)(C)[C@H](NC(=O)[C@H](Cc1ccncc1)NC(=O)CNC(=O)CC[C@H](NS(=O)(=O)c1ccc(Cl)c(C(F)(F)F)c1)C(=O)O)C(=O)Nc1ccc(C(=O)N2CCN(C(=O)[C@@H](N)CCCN)CC2)cc1
95.6 | 86.4 | – | CC(C)(C)[C@H](NC(=O)[C@H](Cc1ccncc1)NC(=O)CNC(=O)CC[C@H](NS(=O)(=O)c1ccc(Cl)c(C(F)(F)F)c1)C(=O)O)C(=O)Nc1ccc(C(=O)NCC2(N)CCNCC2)cc1
99.6 | 90.5 | – | CC(C)(C)[C@H](NC(=O)[C@H](Cc1ccncc1)NC(=O)CNC(=O)CC[C@H](NS(=O)(=O)c1ccc(Cl)c(C(F)(F)F)c1)C(=O)O)C(=O)Nc1ccc(C(=O)N2CCC(C(=O)N[C@H](CCCCN)C(=O)NCCN)CC2)cc1
100 | 93.7 | – | CN(C)CCCC[C@H](NC(=O)CCN)C(=O)N1CCN(C(=O)c2ccc(NC(=O)[C@@H](NC(=O)[C@H](Cc3ccncc3)NC(=O)CNC(=O)CC[C@H](NS(=O)(=O)c3ccc(Cl)c(C(F)(F)F)c3)C(=O)O)C(C)(C)C)cc2)CC1
98.8 | 88.7 | – | CC(C)(C)[C@H](NC(=O)[C@H](Cc1ccncc1)NC(=O)CNC(=O)CC[C@H](NS(=O)(=O)c1ccc(Cl)c(C(F)(F)F)c1)C(=O)O)C(=O)Nc1ccc(C(=O)N2CCC(C(=O)N[C@H](CCCNC(=N)N)C(=O)NCCN)CC2)cc1
– | – | logD [1]: 2.4 | COc1ccccc1Oc1c(NS(=O)(=O)c2ccc(C(C)(C)C)cc2)nc(-c2ncccn2)nc1OCCO [BOSENTAN]
– | – | dose excreted [6]: 5%; clearance [7]: 24.5 mL/min/kg; Vd [8]: 0.208 L/kg; Vd [9]: 0.283 L/kg; clearance [10]: 9.12 mL/min/kg; Stability [11]: < 10% | CC(C)(C)[C@H](NC(=O)[C@H](Cc1ccncc1)NC(=O)CNC(=O)CC[C@H](NS(=O)(=O)c1ccc(Cl)c(C(F)(F)F)c1)C(=O)O)C(=O)N1CCC[C@H]1CC(N)=O ({Benzenesulfonyl(4-Cl,3-CF3)-γGlu}-G[4Pal][Tle][β3hP]-NH2)
